Values of other authors as cited in patent publication US20080306035A1, “Methods and Compositions for Treating Female Infertility Using Clomiphene” (priority 2005, published 2008).
Structures can show the parent of a compound that is named as a salt.

What was measured:
[1] = in vivo

Compound | patients treated who achieve pregnancy (patients treated with clomiphene citrate, London et al. 1999) | ovulation, share of patients (up to 100 mg clomiphene citrate for 5 days per cycle) | effect on uterine blood flow [1]
CCN(CC)CCOc1ccc(C(=C(Cl)c2ccccc2)c2ccccc2)cc1 [clomiphene citrate] | 25-40% | about 70% | 
trans-clomiphene |  |  | raise uterine blood flow
cis-clomiphene |  |  | raise uterine blood flow
